Measured values from US8865894B2, “Oxazolidin-2-one compounds and uses thereof” (Novartis AG, priority 2012, dated 2014).

Legend:
Assay type in all cases: cell-based
[1] = target: T1, human PI3Kbeta p110 catalytic subunit (Rat-1 pBABEpuro Myr-HA-hp110 beta) (Homo sapiens, UniProt P42338); assay: Cellular assay PI3Kbeta (p-Akt(S473) SureFire, Rat-1_PI3beta cells); settings: p-Akt(S473), 1 h compound treatment; read-out: Rat1-PI3Kb/ IC50
T1 construct: Myr (myristoylation signal) (N); HA (N); expressed in transfected cells; host or cells: Rat-1
T1 sequence (P42338 whole entry): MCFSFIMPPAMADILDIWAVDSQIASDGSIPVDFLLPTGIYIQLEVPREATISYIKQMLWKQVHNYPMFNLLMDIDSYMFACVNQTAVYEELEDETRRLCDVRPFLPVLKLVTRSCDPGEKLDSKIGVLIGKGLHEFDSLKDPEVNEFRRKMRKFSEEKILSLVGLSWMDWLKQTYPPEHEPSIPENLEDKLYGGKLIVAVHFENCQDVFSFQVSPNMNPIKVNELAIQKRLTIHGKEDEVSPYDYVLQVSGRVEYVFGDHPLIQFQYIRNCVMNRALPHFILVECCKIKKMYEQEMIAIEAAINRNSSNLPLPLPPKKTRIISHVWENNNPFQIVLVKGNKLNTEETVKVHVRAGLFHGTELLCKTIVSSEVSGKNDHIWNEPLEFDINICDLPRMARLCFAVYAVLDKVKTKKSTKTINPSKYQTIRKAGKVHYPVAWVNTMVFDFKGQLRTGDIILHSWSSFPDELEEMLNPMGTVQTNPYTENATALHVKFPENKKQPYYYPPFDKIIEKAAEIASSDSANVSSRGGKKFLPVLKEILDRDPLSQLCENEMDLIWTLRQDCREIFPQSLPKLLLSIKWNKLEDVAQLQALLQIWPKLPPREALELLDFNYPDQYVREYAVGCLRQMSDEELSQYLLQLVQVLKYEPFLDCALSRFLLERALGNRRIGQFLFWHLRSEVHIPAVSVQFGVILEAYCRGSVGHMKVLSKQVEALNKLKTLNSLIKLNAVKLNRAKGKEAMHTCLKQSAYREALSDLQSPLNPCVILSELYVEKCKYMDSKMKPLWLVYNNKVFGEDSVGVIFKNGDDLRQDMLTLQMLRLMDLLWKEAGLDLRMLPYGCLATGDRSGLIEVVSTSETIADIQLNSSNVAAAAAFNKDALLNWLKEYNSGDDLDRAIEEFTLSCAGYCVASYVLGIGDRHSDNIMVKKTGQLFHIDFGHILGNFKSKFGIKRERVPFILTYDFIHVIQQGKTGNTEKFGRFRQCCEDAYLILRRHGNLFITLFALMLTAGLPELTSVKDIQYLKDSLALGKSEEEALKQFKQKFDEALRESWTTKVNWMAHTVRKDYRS
T1 sequence (Q63787 whole entry partner): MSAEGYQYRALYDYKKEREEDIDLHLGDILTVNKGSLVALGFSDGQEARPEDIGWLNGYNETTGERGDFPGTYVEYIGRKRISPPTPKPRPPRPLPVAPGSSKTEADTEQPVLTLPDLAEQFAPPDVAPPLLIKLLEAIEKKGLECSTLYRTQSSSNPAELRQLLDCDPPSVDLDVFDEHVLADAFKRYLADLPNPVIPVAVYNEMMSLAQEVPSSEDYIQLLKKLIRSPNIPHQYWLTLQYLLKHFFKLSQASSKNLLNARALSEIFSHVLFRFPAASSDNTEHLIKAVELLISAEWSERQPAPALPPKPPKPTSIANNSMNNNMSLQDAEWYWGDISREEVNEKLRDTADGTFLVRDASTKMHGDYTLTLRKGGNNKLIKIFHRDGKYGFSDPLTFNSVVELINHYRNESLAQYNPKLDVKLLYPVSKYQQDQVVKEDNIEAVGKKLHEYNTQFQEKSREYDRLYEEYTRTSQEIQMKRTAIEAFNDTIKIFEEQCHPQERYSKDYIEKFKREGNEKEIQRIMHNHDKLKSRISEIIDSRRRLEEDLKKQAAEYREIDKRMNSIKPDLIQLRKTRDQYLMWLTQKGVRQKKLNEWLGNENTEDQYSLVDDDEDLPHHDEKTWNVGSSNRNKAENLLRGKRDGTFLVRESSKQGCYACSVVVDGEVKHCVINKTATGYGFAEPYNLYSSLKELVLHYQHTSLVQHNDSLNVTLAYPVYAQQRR
From the text: (§1) AlphaScreen (Amplified Luminescent Proximity Homogeneous Assay, ALPHA, Perkin Elmer) is a non-radioactive bead-based proximity assay technology to study biomolecular interactions in a homogenous microtiter plate format. The brand name SureFire denotes AlphaScreen assays that are adapted to quantify the phosphorylation of endogenous cellular proteins in cell lysates, by using matched antibody pairs, which consist of an anti-phospho-kinase and an anti-kinase antibody. The assay allows characterization of kinase signaling in cells as well as measurement of kinase inhibitor effects. The AlphaScreen technology provides several advantages over standard assay techniques such as ELISA, as it avoids time-consuming washing procedures and reduces plate handling. Furthermore, it is miniaturizable at least to a 384-well format and provides sensitivity down to the femtomolar range, dependent on the affinity of the antibodies included in the individual AlphaScreen SureFire assay kit. High sensitivity is reached by an intrinsic amplification mechanism, which involves production of singlet oxygen molecules. SureFire assay kits are commercially available for specific targets and include pairs of validated antibodies (PerkinElmer). This report describes common procedures applied for AlphaScreen SureFire assays and respective semi-automated steps for routine kinase inhibitor profiling in cell-based assays.
(§2) The Rat-1 cell lines stably overexpressing activated PI3K class I isoforms Rat-1 pBABEpuro Myr-HA-hp110 delta (Rat-1_PI3Kdelta) and Rat-1 pBABEpuro Myr-HA-hp110alpha (Rat-1_PI3Kalpha) and Rat-1 pBABEpuro Myr-HA-hp110 beta (Rat-1_PI3beta) were prepared as described (Maira S M, Stauffer F, Brueggen J, Furet P, Schnell C, Fritsch C, Brachmann S, Chène P, de Pover A, Schoemaker K, Fabbro D, Gabriel D, Simonen M, Murphy L, Finan P, Sellers W, García-Echeverría C (2008), Mol Cancer Ther. 7:1851-63 and Maira S M, Pecchi S, Brueggen J, Huh K, Schnell C, Fritsch C, Nagel T, Wiesmann M, Brachmann S, Dorsch M, Chène P, Schoemaker K, De Pover A, Menezes D, Fabbro D, Sellers W, García-Echeverría C, Voliva C F (2011), Mol. Cancer Ther., accepted). All cell lines were cultivated in complete growth medium (DMEM high glucose, 10% (v/v) fetal bovine serum, 1% (v/v) MEM NEAA, 10 mM HEPES, 2 mM L-glutamine, puromycin (10 μg/mL for Rat-1_PI3Kdelta and Rat-1_PI3Kalpha, 4 ug/mL for Rat-1_PI3beta), 1% (v/v) Pen/Strep) to 90% confluency at 37° C./5% CO2/90% humidity in a humidified CO2 incubator and were split twice a week.
(§3) The following materials were used for p-AKT(S473) detection in Rat-1 cell lysates: Dulbecco's modified Eagle's medium (DMEM) high glucose (Gibco Invitrogen, Basel, Switzerland, Cat. No. 41965), Heat Inactivated Fetal Bovine Serum, Qualified (HI FBS; Gibco Invitrogen, Basel, Switzerland, Lot. No. 16140), MEM non essential amino acids (NEAA; Gibco Invitrogen, Basel, Switzerland, Cat. No. 11140), HEPES (Gibco Invitrogen, Basel, Switzerland, Cat. No. 15630), Penicillin/Streptomycin (Pen/Strep, 100×; Gibco Invitrogen, Basel, Switzerland, Cat. No. 15140-122), L-Glutamine (Gibco Invitrogen, Basel, Switzerland, Cat. No. 25030), Puromycin (Sigma Aldrich, Buchs, Switzerland, Cat. No. P9620), DMSO (MERCK, Dietikon, Switzerland, Cat. No. 8.02912.2500), H2O, MilliQ-H2O unless otherwise stated (MILLIPORE QGARDOOR1, Millipore, Zug, Switzerland), Bovine serum albumine (BSA; Sigma Aldrich, Buchs, Switzerland Cat. No. A8412), SureFire p-Akt 1/2 (Ser473) Assay Kit (PerkinElmer, Schwerzenbach, Switzerland, Cat. No. TGRAS50K).
(§4) The p-Akt(S473) SureFire assay measures the phosphorylation of endogenous cellular Akt 1/2 at Ser473 in cell lysates. Using Rat-1 cells stably expressing myr-HA-tagged versions of the human PI3Kdelta, PI3Kalpha, or PI3Kbeta p110 catalytic subunit isoforms, the assay was developed as a two-plate protocol in a 384-well format.

[2] = system: A2058 cells; assay: Cell cycle G2/M arrest Cytospin assay to detect tubulin binding (off-target); design: key: 0=no condensed DNA observed (indicating no off target activity); 1=(indicating weak off target activity); 2=(indicating medium off target activity); 3=large amount of condensed DNA observed (indicating strong off-target activity); settings: 5 μM test item, 24 hours
Protocol: The off-target effect (evidence of tubulin binding) was measured as follows.
Cell cycle G2/M arrest Cytospin assay to detect tubulin binding (off-target) binding activities of MAPP derivatives: 5×10^5 cells A2058 cells were plated in 6-well cluster, with 2 mL of DMEM (high Glucose containing 1% sodium pyruvate, 1% glutamin and 10% FCS). 18 hours later, the test items were added at a concentration of 5 μM (spiking 1 μL of a 10 mM solution of the test item). 24 hours later, the cells were trypsinized and transferred into a 15 mL conical tube. Cells are then pelleted by centrifugation, and resuspended with PBS/0 (containing 10% FCS). Cells are counted with a CASY counter, and each samples equilibrated to 1×10^6 cells/mL. […] The staining was visually assessed for the presence of condensed DNA and given a score where 0=no condensed DNA observed (indicating no off target activity), 1=(indicating weak off target activity), 2=(indicating medium off target activity), 3=large amount of condensed DNA observed (indicating strong off-target activity).

[3] = target: T2, human PI3Kalpha p110 catalytic subunit (Rat-1 pBABEpuro Myr-HA-hp110alpha) (Homo sapiens, UniProt P42336); assay: Cellular assay PI3Kalpha (p-Akt(S473) SureFire, Rat-1_PI3Kalpha cells); settings: 1 h compound treatment, read-out: Rat1-PI3Ka/ IC50
T2 construct: Myr (myristoylation signal) (N); HA (N); expressed in transfected cells; host or cells: Rat-1
T2 sequence (P42336 whole entry): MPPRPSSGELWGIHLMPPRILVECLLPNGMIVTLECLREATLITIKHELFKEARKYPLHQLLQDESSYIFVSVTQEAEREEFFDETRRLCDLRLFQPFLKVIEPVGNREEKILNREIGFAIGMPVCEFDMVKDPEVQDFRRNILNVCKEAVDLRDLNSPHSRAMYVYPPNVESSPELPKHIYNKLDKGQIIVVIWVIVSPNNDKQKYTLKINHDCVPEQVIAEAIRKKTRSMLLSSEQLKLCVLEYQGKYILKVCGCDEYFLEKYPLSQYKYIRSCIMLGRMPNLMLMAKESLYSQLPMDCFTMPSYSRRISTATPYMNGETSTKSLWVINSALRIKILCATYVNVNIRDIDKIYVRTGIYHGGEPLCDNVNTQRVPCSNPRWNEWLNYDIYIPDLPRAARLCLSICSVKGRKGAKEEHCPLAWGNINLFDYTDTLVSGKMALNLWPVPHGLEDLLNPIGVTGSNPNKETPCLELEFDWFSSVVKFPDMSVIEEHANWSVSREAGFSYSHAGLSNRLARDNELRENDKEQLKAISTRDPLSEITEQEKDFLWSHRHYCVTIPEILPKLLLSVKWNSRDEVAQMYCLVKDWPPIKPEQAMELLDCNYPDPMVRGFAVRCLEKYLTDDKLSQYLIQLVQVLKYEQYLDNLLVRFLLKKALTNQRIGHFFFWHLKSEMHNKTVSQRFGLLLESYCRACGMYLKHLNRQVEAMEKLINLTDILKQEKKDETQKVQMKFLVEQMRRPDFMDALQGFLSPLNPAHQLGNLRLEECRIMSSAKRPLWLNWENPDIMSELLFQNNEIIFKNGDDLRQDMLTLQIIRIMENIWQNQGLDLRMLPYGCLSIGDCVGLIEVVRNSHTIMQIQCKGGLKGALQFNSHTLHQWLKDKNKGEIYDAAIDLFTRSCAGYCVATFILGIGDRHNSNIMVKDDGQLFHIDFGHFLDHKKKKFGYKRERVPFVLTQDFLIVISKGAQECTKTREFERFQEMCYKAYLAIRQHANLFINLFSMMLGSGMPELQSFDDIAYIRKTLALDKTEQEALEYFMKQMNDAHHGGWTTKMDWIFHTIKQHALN
T2 sequence (Q63787 whole entry partner): as the sequence (Q63787 whole entry partner) above
From the text: as §1, §2, §3, §4

Row | SMILES | IC50 [1] | Score (condensed DNA, G2/M arrest; off-target tubulin binding) [2] | IC50 [3]
1 | Nc1ncc(-c2cc(N3C[C@@H](CO)OC3=O)nc(N3CCOCC3)n2)c(C(F)(F)F)n1 [Example 14, (S)-3-(2′-Amino-2-morpholin-4-yl-4′-trifluoromethyl-[4,5′]bipyrimidinyl-6-yl)-5-hydroxymethyl-oxazolidin-2-one] | 157 nM | 0 | 277 nM
2 | C[C@H]1[C@@H](CCO)OC(=O)N1c1cc(-c2cnc(N)nc2C(F)(F)F)nc(N2CCOCC2)n1 [Example 23, (4S,5R)-3-(2′-Amino-2-morpholino-4′-(trifluoromethyl)-[4,5′-bipyrimidin]-6-yl)-5-(2-hydroxyethyl)-4-methyloxazolidin-2-one] | 27 nM | 0 | 20 nM
3 | COC[C@H]1COC(=O)N1c1cc(-c2cnc(N)nc2C(F)(F)F)nc(N2CCOCC2)n1 [Example 5, (S)-3-(2′-Amino-2-morpholin-4-yl-4′-trifluoromethyl-[4,5′]bipyrimidinyl-6-yl)-4-methoxymethyl-oxazolidin-2-one] | 314 nM | 0 | 93 nM
4 | C[C@H]1COCCN1c1nc(-c2cnc(N)nc2C(F)(F)F)cc(N2C(=O)OC[C@@H]2C)n1 [Example 13, (S)-3-[2′-Amino-2-((S)-3-methyl-morpholin-4-yl)-4′-trifluoromethyl-[4,5′]bipyrimidinyl-6-yl]-4-methyl-oxazolidin-2-one] | 240 nM | 0 | 58 nM
5 | Nc1ncc(-c2cc(N3C(=O)OC4C(O)CCC43)nc(N3CCOCC3)n2)c(C(F)(F)F)n1 (single isomer, unassigned) [Example 22A] | 60 nM |  | 86 nM
6 | C[C@H]1C(CC(C)(C)O)OC(=O)N1c1cc(-c2cnc(N)nc2C(F)(F)F)nc(N2CCOCC2)n1 (mixture of isomers) [Example 26, (4S,5R)- and (4S,5S)-3-(2′-amino-2-morpholino-4′-(trifluoromethyl)-[4,5′-bipyrimidin]-6-yl)-5-(2-hydroxy-2-methylpropyl)-4-methyloxazolidin-2-one] | 75 nM | 0 | 58 nM
7 | C[C@H]1OC(=O)N(c2cc(-c3cnc(N)nc3C(F)(F)F)nc(N3CCOCC3)n2)[C@H]1CO [Example 18, (4S,5R)-3-(2′-Amino-2-morpholin-4-yl-4′-trifluoromethyl-[4,5′]bipyrimidinyl-6-yl)-4-hydroxymethyl-5-methyl-oxazolidin-2-one] | 88 nM | 0 | 38 nM
8 | [2H]C1([2H])OC([2H])([2H])C([2H])([2H])N(c2nc(-c3cnc(N)nc3C(F)(F)F)cc(N3C(=O)O[C@H](C)[C@@H]3CO)n2)C1([2H])[2H] [Example 8] | 108 nM | 0 | 81 nM
9 | C[C@@H]1OC(=O)N(c2cc(-c3cnc(N)nc3C(F)(F)F)nc(N3CCOCC3)n2)[C@H]1CO [Example 6] | 147 nM | 0 | 94 nM
10 | C[C@H]1OC(=O)N(c2cc(-c3cnc(N)nc3C(F)(F)F)nc(N3CCOC[C@@H]3C)n2)[C@H]1CO [Example 10, (4S,5R)-3-[2′-Amino-2-((S)-3-methyl-morpholin-4-yl)-4′-trifluoromethyl-[4,5′]bipyrimidinyl-6-yl]-4-hydroxymethyl-5-methyl-oxazolidin-2-one] | 173 nM | 0 | 61 nM
11 | CC1(C)OC(=O)N(c2cc(-c3cnc(N)nc3C(F)(F)F)nc(N3CCOCC3)n2)[C@H]1CO [Example 2, (S)-3-(2′-Amino-2-morpholin-4-yl-4′-trifluoromethyl-[4,5′]bipyrimidinyl-6-yl)-4-hydroxymethyl-5,5-dimethyl-oxazolidin-2-one] | 278 nM |  | 134 nM
12 | C[C@H](O)CC1OC(=O)N(c2cc(-c3cnc(N)nc3C(F)(F)F)nc(N3CCOCC3)n2)[C@H]1C (single isomer, unassigned) [Example 25] | 43 nM | 0 | 45 nM
13 | Nc1ncc(-c2cc(N3C(=O)O[C@H]4CCCC[C@@H]43)nc(N3CCOCC3)n2)c(C(F)(F)F)n1 [Example 4, (3aS,7aS)-3-(2′-Amino-2-morpholin-4-yl-4′-trifluoromethyl-[4,5′]bipyrimidinyl-6-yl)-hexahydro-benzooxazol-2-one] | 183 nM | 0 | 31 nM
14 | C[C@@H](O)C[C@H]1OC(=O)N(c2cc(-c3cnc(N)nc3C(F)(F)F)nc(N3CCOCC3)n2)[C@H]1C (single isomer, unassigned) [Example 24] | 34 nM | 0 | 45 nM
15 | Nc1ncc(-c2cc(N3C(=O)OC4C(O)CCC43)nc(N3CCOCC3)n2)c(C(F)(F)F)n1 (single isomer, unassigned) [Example 22B] | 125 nM |  | 148 nM
16 | Nc1ncc(-c2cc(N3CCOC3=O)nc(N3CCOCC3)n2)c(C(F)(F)F)n1 [Example 11, 3-(2′-Amino-2-morpholin-4-yl-4′-trifluoromethyl-[4,5′]bipyrimidinyl-6-yl)-oxazolidin-2-one, reference compound] | 184 nM | 3 | 256 nM
17 | Nc1ncc(-c2cc(N3C(=O)OC[C@@H]3CCO)nc(N3CCOCC3)n2)c(C(F)(F)F)n1 [Example 9, (S)-3-(2′-Amino-2-morpholin-4-yl-4′-trifluoromethyl-[4,5′]bipyrimidinyl-6-yl)-4-(2-hydroxy-ethyl)-oxazolidin-2-one] | 226 nM |  | 147 nM
